Results published in patent US20240392240A1, “PIG EMBRYO-DERIVED PLURIPOTENT STEM CELLS AND USE THEREOF” (CHINA AGRICULTURAL UNIVERSITY, priority 2021, published 2024).
Entries after “also recorded” stand apart in the source; their conditions may differ.

Experiments:
Assay type in all cases: cell-based, pig
pgEpiSCs [1] = experiment: Cell proliferation, survival and passaging of pgEpiSCs; conditions: for proliferation and passaging of pgEpiSCs: FGF2 removed and ERK/MEK inhibitor PD0325901 added, FIG. 2-1I to 2-1K
Procedure: pgEpiSCs were cultured in a 12-well plate. Cell samples were inoculated at a density of 2× 10^4 cells per well in triplicate. The number of cells was counted every 12 hours. For each time point, cells were digested and counted using a Luna™ Automated Cell Counter, and the results of three counts were averaged and plotted. The cell doubling time was calculated as follows: doubling time (DT)=24×[lg2/(lgNt−lgN0)], where 24 is the cell culture time (hour); Nt is the number of cells cultured for 48 hours; and No is the number of cells recorded at 24 hours.
(§1) According to the 3i/LAF medium and its culture method described in Example 1, the inventors tested the requirement for each factor in the 3i/LAF medium for long-term in vitro maintenance of pgEpiSCs on the basis of removing the small molecule inhibitors and cytokines from the culture medium one by one without altering the other conditions.

pgEpiSCs [2] = experiment: qRT-PCR of marker gene mRNA in pgEpiSCs in modified 3i/LAF medium
Procedure: Total RNA from pgEpiSCs was extracted using the RNAprep Pure Cell/Bacteria Kit (TIANGEN, DP430), and then reverse transcribed to cDNA using 5×All-in-One RT Master Mix (Abm, G490). PCR was performed on a LightCycler480 II Real Time System (Roche) using 2×RealStar Green Power Mixture (GenStar, A311-05). The data were analyzed using the comparative CT (2^−ΔΔCT) method. ΔCT was calculated using EF1A as an internal control. All experiments were performed in three biological replicates. Primers used for quantitative real-time PCR are listed in the Resource table.
as §1

pgEpiSCs [3] = experiment: Immunostaining of POU5F1 and EOMES in pgEpiSCs; conditions: factor removed from 3i/LAF medium; FIG. 2-1C
Procedure: Cells were washed with DPBS (Gibco, C14190500BT) and fixed with 4% paraformaldehyde for 30 min at room temperature, then washed with DPBS again, permeabilized in 0.1% Triton X-100 for 20 min and blocked with 3% BSA for 1 hour. Cells were incubated with primary antibody diluted with 3% BSA at 4° C. overnight. Cells were then washed three times for 3 min each with wash buffer (DPBS containing 0.1% Triton X-100 and 0.1% Tween 20). The secondary antibody was diluted, and incubated with wash buffer for 1 hour at room temperature, then washed three times for 5 min each with wash buffer, and then the nuclei were stained with DAPI (Roche Life Science, 10236276001) for 3 min.
as §1

pgEpiSCs [4] = experiment: Clone morphology and alkaline phosphatase (AP) staining of pgEpiSCs in modified 3i/LAF medium; conditions: for clone morphology and AP staining signal after removal of the factor: factor removed from 3i/LAF medium, other conditions unchanged, FIG. 2-1A
Procedure: The alkaline phosphatase staining of pgEpiSC was based on the Alkaline Phosphatase Assay Kit (Millipore, SCR004). Specific experimental steps followed the instructions of the kit.
Epiblast from pig E8-E10 embryos was obtained, and the epiblast was treated with TrypLE™ Express followed by repeatedly blowing to disperse into small cell masses. The cell masses were then inoculated into 12-well cell culture dishes (density of the feeder layer cells were approximately 2×10^5 cells/well) supplemented with 750 μL of 3i/LAF medium (Note: 10 μM Y27632 was added into the 3i/LAF medium), wherein the feeder layer cells were mouse embryonic fibroblasts treated with mitomycin C (Selleckchem, S8146) and cultured in an incubator at 37° C., 100% humidity, and 5% CO2. After 12 hrs, another 750 μL of 3i/LAF medium was added without changing the medium, and after 24 hrs, the medium was replaced with fresh 3i/LAF medium (containing 2 μM Y27632). After that, the medium was replaced with fresh medium every 12 hrs, and after the clones grew for 2-3 days, the morphology of the clones was observed and the clones were digested for passaging.
as §1
Experimental method: pgEpiSCs were cultured with the adjusted medium, after which AP staining was performed on the cultured pgEpiSCs of P1 (indicating the pgEpiSCs after 1 passage in the adjusted medium) or P3 (indicating the pgEpiSCs after 3 passages in the adjusted medium). The specific steps of AP staining are described in the section of Experimental Methods described previously.

phosphorylated STAT3 = experiment: Western blot of phosphorylated STAT3 in pgEpiSCs; conditions: with or without LIF; FIG. 2-1M
Procedure: Total proteins were extracted from cells by cell lysis buffer (Beyotime Biotechnology, P0013), and nuclear and cytoplasmic proteins were extracted using the nucleus and cytoplasmic protein extraction kit (Beyotime Biotechnology, P0027) supplemented with protease and phosphatase inhibitor cocktail (Beyotime Biotechnology, P1050) to extract nuclear and cytoplasmic proteins. The concentration of extracted proteins was measured using the Bradford Protein Assay Kit (Bio-red, 5000201). An equal amount of proteins (15 μg) was separated by SDS-PAGE gel electrophoresis, which were transferred from the gel to Immobilon-P transfer membrane (Merck Millipore; pore size: 0.45 μm; IPVH00010). The blots were blocked in 5% nonfat powdered milk (Sangon Biotech, A600669-0250) in TBST (20 mM Tris, pH 7.5; 150 mM NaCl; 0.1% Tween 20) at room temperature for 1 hour and then incubated with primary antibodies diluted in 5% nonfat powdered milk in TBST overnight at 4° C. The next day, the blots were rinsed three times with TBST for 5 minutes each time, then incubated together with HRP-coupled secondary antibody diluted in 5% nonfat powdered milk in TBST for 1 hour at room temperature. The blots were developed with SuperSignal West Dura Extended Duration Substrate (Thermo Fisher Scientific, 34075), and the intensity of the bands of the target proteins was analyzed using CLINX chemiluminescence software. […]

[5] = high concentration of CHIR99021 in the medium, FIG. 2-1E, 2-1F, 2-2C, 2-2D
[6] = factor removed from 3i/LAF medium, FIG. 2-1B
[7] = inhibitor added into the culture medium, FIG. 2-1H
[8] = only IWR-1-endo replaced with XAV939, FIG. 2-2A
[9] = only IWR-1-endo replaced with XAV939, FIG. 2-2B

In the case of `O=C(NOC[C@H](O)CO)c1ccc(F)c(F)c1Nc1ccc(I)cc1F` [PD0325901], the “proliferation and passaging of pgEpiSCs” value (pgEpiSCs [1]) is reported as “could not proliferate or be passaged normally”.
For `Cc1c[nH]c(-c2cnc(NCCNc3ccc(C#N)cn3)nc2-c2ccc(Cl)cc2Cl)n1` [CHIR99021], the “expression of cell proliferation-related genes (LIN28A, C-MYC, ETV4, ETV5) after removal of the factor” value (pgEpiSCs [2]; factor removed from 3i/LAF medium, FIG. 2-1D) was “down-regulated”, the “expression of GATA6 at high concentration” value (pgEpiSCs [2]; [5]) was “significant up-regulation; also recorded: up-regulated” and the “expression of pluripotency marker POU5F1 at high concentration” value (pgEpiSCs [2]; [5]) was “down-regulation; also recorded: decreased”.
For `COc1ccc(N(C(=O)Oc2c(C)cccc2C)c2ccnc(Nc3ccc(N4CCN(C)CC4)cc3)n2)c(OC)c1` [WH-4-023], the “mesodermal and endodermal progenitor marker EOMES immunostaining after removal of the factor” value (pgEpiSCs [3]) was “promoting the expression”, the “pluripotency factor POU5F1 immunostaining after removal of the factor” value (pgEpiSCs [3]) was “reduced accumulation or heterogeneity” and the “expression of gastrulation marker genes BMP2, BMP4, EOMES and T after removal of the factor” value (pgEpiSCs [2]; [6]) was “up-regulation”.
With “LIF: cytokine of the 3i/LAF medium (PeproTech, 300-05)” the “clone morphology and AP staining signal after removal of the factor” value (pgEpiSCs [4]; 2-1L) was “not necessary to maintain the morphology” and the “detection of phosphorylated STAT3” value (phosphorylated STAT3) was “could be detected only in the presence of LIF”.
With `O=C(Nc1cccc2cccnc12)c1ccc(N2C(=O)[C@@H]3[C@H](C2=O)[C@@H]2C=C[C@H]3C2)cc1` [IWR-1-endo] the “clone morphology and AP staining signal after removal of the factor” value (pgEpiSCs [4]; 2-1L) was “poorly defined boundaries of the pgEpiSC clone”, the “mesodermal and endodermal progenitor marker EOMES immunostaining after removal of the factor” value (pgEpiSCs [3]) was “promoting the expression” and the “pluripotency factor POU5F1 immunostaining after removal of the factor” value (pgEpiSCs [3]) was “reduced accumulation or heterogeneity”. For the same compound, the “expression of core pluripotency factors (NANOG, POU5F1, SOX2, REX1) after removal of the factor” value (pgEpiSCs [2]; [6]) was “significant down-regulation” and the “expression of gastrulation marker genes BMP2, BMP4, EOMES and T after removal of the factor” value (pgEpiSCs [2]; [6]) was “up-regulation”.
“FGF2: fibroblast growth factor, cytokine of the 3i/LAF medium (Peprotech, 100-18B)” was tested, and the “proliferation and passaging of pgEpiSCs” value (pgEpiSCs [1]) was “could not proliferate or be passaged normally”, the “proliferative capacity of pgEpiSCs on decreasing the concentration” value (pgEpiSCs [1]; decreasing FGF2 concentration, all other conditions unchanged, FIG. 2-1K) was “significantly reduced” and the “cell proliferation at high concentrations” value (pgEpiSCs [1]; high concentrations of FGF2, FIG. 2-1K) was “faster cell proliferation”.
For “Activin A: TGF-β superfamily member, cytokine of the 3i/LAF medium (Peprotech, 120-14E)”, the “level of pluripotency marker NANOG after removal of the factor” value (pgEpiSCs [2]; factor removed from 3i/LAF medium, FIG. 2-1G, 2-1H) was “decrease”.
`NC(=O)c1ccc(-c2nc(-c3ccc4c(c3)OCO4)c(-c3ccccn3)[nH]2)cc1` [SB431542] was tested, and the “clone morphology after addition of the inhibitor” value (pgEpiSCs [4]; inhibitor added into the culture medium, FIG. 2-1G, 2-1L) was “irregular clone morphology”, the “level of NANOG after addition of the inhibitor” value (pgEpiSCs [2]; inhibitor added into the culture medium, FIG. 2-1G, 2-1H) was “dramatic decrease” and the “BMP4 and BMP downstream transcription factors (ID2, ID3) after addition of the inhibitor” value (pgEpiSCs [2]; [7]) was “significant increase”. For the same compound, the “pluripotency markers (POU5F1, REX1) after addition of the inhibitor” value (pgEpiSCs [2]; [7]) was “significant decrease”.
In the case of `Oc1nc(-c2ccc(C(F)(F)F)cc2)nc2c1CSCC2` [XAV939], the “passaging at which AP positivity was lost (figure legend)” value (pgEpiSCs [4]; IWR-1-endo replacement with XAV939, FIG. 2-2A) is reported as “around 8 passages of passaging”, the “maintenance of pluripotency after IWR-1-endo replacement” value (pgEpiSCs [4]; [8]) is reported as “unable to maintain pluripotency for a long period of time” and the “passaging at which AP positivity was lost” value (pgEpiSCs [4]; [8]) is reported as “about 8 generations of passaging”. For the same compound, the “expression of core pluripotency factor OCT4 (POU5F1) after IWR-1-endo replacement” value (pgEpiSCs [2]; [9]) was “down-regulated” and the “expression of pluripotency factors REX1, STELLA and ESRRB after IWR-1-endo replacement” value (pgEpiSCs [2]; [9]) was “down-regulated”.
